This assay relates to S. albus J1074 and the Δpfk-derivative strain. Briefly: Diamide sensitivity disc assay. The assay is classed as cell-based, Streptomyces albus J1074. The conditions noted are these: 100 mM diamide disc; ΔpfkSA mutant relative to wild type S. albus J1074; R5A plates, 30° C., 24 h. Here is the method: Lawns of S. albus J1074 wild-type and Δpfk mutant were generated by overlaying R5A plates (sucrose 100 g/l, K2SO4 0.25 g/l, MgCl2 10.12 g/l, glucose 10 g/l, Casamino acids 0.1 g/l, yeast extract 5 g/l, MOPS 21 g/l, NAOH 2 g/l, R2YE trace elements 2 ml/l, 15 g/L agar) with 3 ml soft Nutrient Agar containing 10^7 fresh spores. Immediately after plating, paper discs soaked in 100 mM diamide were added and plates were incubated at 30° C. for 24 h.

For the molecule `CN(C)C(=O)/N=N/C(=O)N(C)C` [diamide], the “sensitivity to diamide (halo around disc)” value is recorded as “less sensitive”.

For the origin of these results see patent US20210163964A1, “ENGINEERED STREPTOMYCES ALBUS STRAINS” (University of Florida Research Foundation, Incorporated, priority 2018, published 2021).
